# Experimental data from EPA's ToxValDB 9.5.
# Values joined by “and” are separate entries in the source; they are usually repeats but may differ in a detail not shown here. Identical values can stand only once.
# How the values were obtained:
# [1] = system: Gallus gallus
# [2] = system: Rattus norvegicus; conditions: for LD50: acute, mortality
# [3] = system: Apis mellifera; conditions: acute, mortality
# [4] = system: Pontoscolex corethrurus; conditions: acute; mortality
# [5] = for NOAEL: subchronic
# [6] = system: Oryctolagus sp.; conditions: reproduction developmental; body weight
# [7] = system: Mus musculus; conditions: for LOAEL: M
# [8] = system: Daphnia magna; conditions: acute; for LC50: mortality
# [9] = system: Oncorhynchus mykiss; conditions: acute; duration: 96 hours; mortality
# [10] = system: Colinus virginianus; conditions: acute; oral; mortality
# [11] = system: Meleagris sp.
# [12] = system: Sus scrofa; conditions: for LEL: subchronic, diet
# [13] = system: Homo sapiens; conditions: clinical; for LEL: no effects
# [14] = system: Canidae
# [15] = reproduction developmental, body weight
# [16] = duration: 6 weeks, oral, M/F, Large White x Landrace, clinical chemistry
# [17] = subchronic, duration: 35 days, oral, diet, M/F, no effects
# [18] = duration: 12 weeks, oral, M, clinical chemistry
structure (smiles),measurement,setting,value
CSCCC(N)C(=O)[O-].O=S(=O)([O-])O.[Zn+2] (stereo unspecified),LEL,"[1]; subchronic, duration: 35 days, M, Chicken, no effects",120 mg/kg-day
C[C@@H]1O[C@H](O[C@H]2[C@H](O[C@H]3[C@@H](OC[C@H]4O[C@@H](O[C@@H]([C@H](O)[C@@H](O)CO)[C@H](O)CO)[C@H](O)[C@@H](O)[C@@H]4O[C@@H]4O[C@H](CO[C@H]5OC[C@@H](O)[C@H](O)[C@H]5O)[C@@H](O)[C@H](O)[C@H]4O)OC[C@@H](O)[C@@H]3O)O[C@H](CO)[C@H](O)[C@@H]2O)[C@@H](O)[C@H](O)[C@@H]1O,LD50,[2]; oral,> 5000 mg/kg-day
same,LD50,"[3]; oral, unspecified",> 100 µg/piece
CC(=O)OC(C)c1ccccc1 (racemic) [(+/-)-alpha-Methylbenzyl acetate],LC50,[4],1480 mg/kg
"CCOCCC(OCC)OCC [1,1,3-Triethoxypropane]",LOAEL,"[2]; subchronic, M, hematological",69 mg/kg-day
same,LOAEL,[5]; repeat dose other,9.5 mg/kg-day
"O=C(O)Cn1cncn1 [1,2,4-Triazole-1-acetic acid]",NOAEL,[2]; [15],100 mg/kg-day
same,NOAEL,[6],100 mg/kg-day
"CC12CCC(CC1)C(C)(C)O2 [1,8-Cineol]",NOAEL,"[7]; short-term, duration: 28 days, oral, capsule, M/F, other",562 mg/kg-day
CCCCCCC(C=O)=Cc1ccccc1 [2-(Phenylmethylene)octanal],NOAEL,"[2]; chronic, duration: 14 weeks, oral, diet, M/F, organ weight",30 mg/kg-day
same,LC50,"[5]; acute, mortality",0.2 mg/L
"O=C1CCSC1 [3(2H)-Thiophenone, dihydro-]",LC50,[4],305 mg/kg
CCC(C)c1nccnc1OC (stereo unspecified) [3-sec-Butyl-2-methoxypyrazine],LC50,[8],14 mg/L
same,LC50,[4],235 mg/kg
CC(=O)CCc1ccc(O)cc1 [4-(4-Hydroxyphenyl)butan-2-one],NOAEL,[5]; duration: 13 weeks,280 mg/kg-day
same,LC50,[8],16.9 mg/L
same,LC50,[4],248 mg/kg
"CC(C)=CCC/C(C)=C/CO [(2E)-3,7-Dimethyl-2,6-octadien-1-ol]",LD50,[2]; oral,3600 mg/kg-day
same,LC50,[9],11.6 mg/L
CC1=CC(=O)CC(C)(C)[C@@]1(O)/C=C/C(C)=C\C(=O)O [(+)-(S)-Abscisic acid],LD50,[2]; oral,> 5000 mg/kg-day
same,NOAEC,"[2]; reproduction developmental, no effects",≥ 1360 mg/kg-day
same,LD50,[10],> 2250 mg/kg-day
O=S(=O)([O-])c1ccc(N=Nc2cc(S(=O)(=O)[O-])c3ccccc3c2O)c2ccccc12.[Na+].[Na+] [Azorubine],NOAEL,"[2]; chronic, M/F, body weight",400 mg/kg-day
same,NOAEL,"[7]; chronic, hematological",375 mg/kg-day
CC(C)[C@H]1OC(=O)[C@H](Cc2ccccc2)N(C)C(=O)[C@@H](C(C)C)OC(=O)[C@H](Cc2ccccc2)N(C)C(=O)[C@@H](C(C)C)OC(=O)[C@H](Cc2ccccc2)N(C)C1=O [Beauvericin],NOAEL,[1]; repeat dose other,1.22 mg/kg-day and 0.536 mg/kg-day
same,NOAEL,[11]; not reported,136 µg/kg-day
"Cc1oc2ccccc2c1C [Benzofuran, 2,3-dimethyl-]",NOAEL,"[2]; subchronic, duration: 90 days, oral",0.6 mg/kg-day
same,NOAEL,[5]; duration: 90 days,0.6 mg/kg-day
C[N+](C)(C)CC(=O)O.[Cl-] [Betaine hydrochloride],LEL,[12]; [16],10000 mg/kg-day
C[N+](C)(C)CC(=O)[O-] [Betaine],LEL,"[13]; duration: 3 months, oral",4000 mg/day
same,LEL,"[13]; duration: 6 months, oral",4000 mg/day
same,LEL,[12]; [16],10000 mg/kg-day
"C[Se]CCC(O)C(=O)O (stereo unspecified) [Butanoic acid, 2-hydroxy-4-(methylseleno)-]",LEL,[1]; [17],5 mg/kg-day
same,LEL,"[1]; subchronic, duration: 42 days, oral, diet, M/F, no effects",5 mg/kg-day
same,LEL,"[11]; subchronic, duration: 42 days, oral, feed, M/F, But big 6, no effects",5 mg/kg
same,LEL,"[12]; duration: 42 days, oral, M/F, Not specified, no effects",5 mg/kg-day
C=C1CC[C@H](O)C/C1=C/C=C1\CCC[C@]2(C)[C@@H]([C@H](C)CCCC(C)(C)O)CC[C@@H]12 [Calcifediol],LEL,[1]; [17],0.07 mg/kg-day
same,LEL,"[12]; duration: 42 days, oral, Not specified, no effects",0.5 mg/kg-day
CN/C(=N\[N+](=O)[O-])NCc1cnc(Cl)s1 [Clothianidin],LD50,[3]; dermal,0.0275 µg/piece and 0.0258 µg/piece
same,LD50,"[3]; duration: 48 hours, dermal",0.0275 µg/piece
same,LD50,"[3]; duration: 48 hours, oral, unspecified",0.00379 µg/piece
same,LD50,"[3]; oral, unspecified",0.00379 µg/piece
[Cu+2].[O-2] [Cupric oxide],NOAEL,[13]; [18],10 mg/day
CC(=O)OC[C@]12CCC(C)=C[C@H]1O[C@@H]1[C@H](O)[C@@H](OC(C)=O)[C@@]2(C)[C@]12CO2 [Diacetoxyscirpenol],NOAEL,"[13]; injection, intravenous, hematological",0.065 mg/kg-day
same,NOAEL,"[13]; injection, intravenous, other",0.032 mg/kg-day
same,LOAEL,"[14]; acute, injection, intravenous, Beagle, hematological",0.031 mg/kg-day
same,LOAEL,"[1]; subchronic, duration: 35 days, M, Chicken, histopathology: neoplastic",0.01 mg/kg-day
same,LOAEL,"[12]; short-term, oral, gavage, Not specified, histopathology: neoplastic",0.08 mg/kg-day
[Cl-].[Cu+2].[Cu+2].[OH-].[OH-].[OH-] [Dicopper chloride trihydroxide],LEL,"[1]; chronic, duration: 16 weeks, oral, diet, no effects",390 mg/kg-day
same,LEL,"[1]; short-term, duration: 21 days, oral, diet, M/F, food consumption",600 mg/kg-day
same,LEL,"[1]; short-term, duration: 21 days, oral, diet, clinical chemistry",450 mg/kg-day and 300 mg/kg-day
CCCCCCCC/C=C\CCCCCCCCCCCC(=O)O [Erucic acid],NOAEL,"[2]; short-term, duration: 7 days, oral, diet, M, Sprague-Dawley, histopathology: nonneoplastic",700 mg/kg-day
same,LOAEL,"[1]; chronic, histopathology: nonneoplastic",20 mg/kg-day
same,NOAEL,"[12]; short-term, duration: 14 days, M/F, Not specified, histopathology: nonneoplastic",700 mg/kg-day
O=C1OC2(c3ccccc31)c1cc(I)c([O-])c(I)c1Oc1c2cc(I)c([O-])c1I.[Na+].[Na+] [FD&C Red 3],NOAEL,"[13]; duration: 14 days, oral, capsule, M, clinical chemistry",1 mg/kg-day
same,NOAEL,"[2]; repeat dose other, oral, diet, other",125 mg/kg-day
same,NOAEL,"[14]; chronic, duration: 2 years, oral, diet, M/F, Beagle, clinical chemistry",10000 mg/kg-day
[Fe+2] [Fe +2 ion],NOAEL,"[2]; developmental, development",380 mg/kg-day
same,NOAEL,"[7]; developmental, development",380 mg/kg-day
C/C=C/c1ccc(O)c(OC)c1 [Isoeugenol],NOEC,[8],0.4 mg/L
same,LOAEL,"[7]; chronic, duration: 2 years, histopathology: neoplastic",75 mg/kg-day
Cc1cc(OC(C)C)ccc1C(=O)C(C)(C)NC(=O)c1sccc1C [Isofetamid],NOAEL,"[14]; chronic, duration: 1 years, Dog Other, body weight",1.57 mg/kg-day
same,NOAEL,"[14]; subchronic, duration: 90 days, oral, Dog Other, body weight",5.34 mg/kg-day
"Cl.Cl.[Cu+2].[NH-][C@@H](CCCCN)C(=O)[O-].[NH-][C@@H](CCCCN)C(=O)[O-] [L-Lysine, copper complex]",NOAEL,[13]; [18],10 mg/day
[Cl-].[Mn+2].[Mn+2].[OH-].[OH-].[OH-] [Manganese chloride hydroxide (Mn2Cl(OH)3)],LEL,"[1]; subchronic, duration: 35 days, oral, diet, no effects",1920 mg/kg-day
CSSC [Methyl disulfide],LD50,[2]; oral,> 125 mg/kg
same,NOAEC,[2]; [15],5 ppm
same,NOAEC,"[2]; reproduction developmental, inhalation, no effects",308 mg/m3
same,NOAEC,"[2]; subchronic, duration: 90 days, inhalation, body weight",77 mg/m3
same,LD50,[10],342 mg/kg
same,LD50,[3]; dermal,> 100 µg/piece
CN1CCCC1=O [N-Methyl-2-pyrrolidone],NOAEL,"[7]; chronic, M/F, B6C3F1, organ weight",90 mg/kg-day
C=C(/C=C\C[C@@H](O)[C@@H](O)[C@H](O)C/C=C/C=C\[C@@H](O)C[C@@H]1O[C@H](C[C@@H](O)[C@H](O)C[C@H]2O[C@H]([C@H](O)[C@H](O)CC[C@H](O)/C=C/[C@H](C)[C@@H](O)C[C@]3(O)O[C@H](C[C@@H](O)CCCCCCC[C@@]45C[C@@H](C)C[C@@](C)(O4)[C@@H](C[C@@H](C)CCCCC[C@@H](O)[C@H](O)[C@H](O)[C@@H](O)[C@H](O)[C@H]4O[C@H](C[C@H](O)[C@H](O)/C(C)=C/[C@H](O)C[C@@H](C)[C@H](O)C(=O)N/C=C/C(=O)NCCCO)[C@H](O)[C@@H](O)[C@@H]4O)O5)[C@H](O)[C@@H](O)[C@H]3O)C[C@@H](O)[C@@H]2O)[C@@H](O)[C@H](O)[C@H]1O)CC[C@H](O)[C@@H](O)[C@H](O)[C@H](C)C[C@H]1O[C@H](/C=C\[C@@H](O)[C@H](O)C[C@@H]2C[C@@H]3C[C@H](O2)[C@@H](CC[C@H]2O[C@H](CN)C[C@H]2O)O3)[C@@H](O)[C@H](O)[C@H]1O [Palytoxin],LOAEL,"[7]; acute, oral, gavage, ICR, clinical signs",0.2 mg/kg-day
[Cl-].[K+] [Potassium chloride],LEL,"[13]; duration: 4 weeks, oral, F",40 mg/kg-day
NC1=N[C@H](O)[C@H]2[C@H]3O[C@]4(O)O[C@@H]([C@@H](O)[C@@]2(N1)[C@@H]4O)[C@]3(O)CO [Tetrodotoxin],LEL,"[7]; acute, injection, intraperitoneal, no effects",0.025 mg/kg-day
same,NOAEL,"[7]; acute, oral, other",0.075 mg/kg-day
COc1nc(NC(=O)NS(=O)(=O)c2ccccc2C(F)(F)F)nc(C(F)(F)F)n1 [Tritosulfuron],NOAEL,"[14]; chronic, duration: 12 months, oral, Dog Other, organ weight",6 mg/kg-day
same,NOAEL,"[14]; subchronic, duration: 90 days, oral, Dog Other",15 mg/kg-day
CC(C)=CCC/C(C)=C/C=C/C(C)=C/C=C/C(C)=C/C=C/C=C(C)/C=C/C=C(C)/C=C/C=C(\C)CCC=C(C)C [all-trans-Lycopene],NOAEL,"[2]; chronic, duration: 1 years, clinical chemistry",50 mg/kg-day
CC1=C(/C=C/C(C)=C/C=C/C(C)=C/C=C/C=C(C)/C=C/C=C(C)/C=C/C2=C(C)CCCC2(C)C)C(C)(C)CCC1 [beta-Carotene],LEL,[13]; duration: 5 years,≤ 15 mg/day
OC[C@H]1O[C@@H]2O[C@H]3[C@H](O)[C@@H](O)[C@@H](O[C@H]4[C@H](O)[C@@H](O)[C@@H](O[C@H]5[C@H](O)[C@@H](O)[C@@H](O[C@H]6[C@H](O)[C@@H](O)[C@@H](O[C@H]7[C@H](O)[C@@H](O)[C@@H](O[C@H]8[C@H](O)[C@@H](O)[C@@H](O[C@H]1[C@H](O)[C@H]2O)O[C@@H]8CO)O[C@@H]7CO)O[C@@H]6CO)O[C@@H]5CO)O[C@@H]4CO)O[C@@H]3CO [beta-Cyclodextrin],NOAEL,"[2]; chronic, duration: 6 months, oral, gavage, Long-Evans, body weight",600 mg/kg-day
same,NOAEL,"[2]; chronic, duration: 52 weeks, M/F, Sprague-Dawley, clinical chemistry",654 mg/kg-day
same,NOAEL,"[14]; chronic, duration: 1 years, Dog Other, clinical chemistry",466 mg/kg-day
C=CC(C)=CCC=C(C)C [beta-Ocimene],NOAEL,"[2]; subchronic, duration: 90 days, oral, diet, M/F, Sprague-Dawley, no effects",44 mg/kg-day
Cc1ccc(C(C)C)cc1 [p-Cymene],NOAEL,"[2]; chronic, duration: 6 months, oral, gavage, F, organ weight",154 mg/kg-day
CC(C)(C)c1cc(O)ccc1O [tert-Butylhydroquinone],NOAEL,"[14]; chronic, duration: 117 weeks, oral, diet, M/F, Beagle, clinical chemistry",72 mg/kg-day
